The text below walks through data of patent US20060068457A1, “Substrates for tafi (a)” (priority 2002, published 2006).

One experiment deals with T1, carboxypeptidase B (Homo sapiens, UniProt P15086).
T1 sequence (P15086 111-417): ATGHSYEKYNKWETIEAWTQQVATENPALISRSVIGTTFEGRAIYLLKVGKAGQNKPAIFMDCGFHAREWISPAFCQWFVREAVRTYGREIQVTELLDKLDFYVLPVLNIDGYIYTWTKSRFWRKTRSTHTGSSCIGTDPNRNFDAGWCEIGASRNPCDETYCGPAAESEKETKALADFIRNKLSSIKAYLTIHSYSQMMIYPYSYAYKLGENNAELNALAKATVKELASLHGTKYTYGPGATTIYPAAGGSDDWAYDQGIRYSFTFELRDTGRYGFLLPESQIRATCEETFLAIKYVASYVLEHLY
In words: Splitting of thiaarginine and thialysine substrates by carboxypeptidase B. It is filed as biochemical. The following applies: substrate final concentration 174 μM. As to the method: The thiaarginine derivatives of the following formulas A and B [drawing 2] have been described as substrates for carboxypeptidase B (Bull. Korean. Chem. Soc. 1998, 19(2), 189-193). […] Detection of CPB by means of compound A is carried out according to the following FIG. 1. [drawing]
(§1) • measure for 10 min at RT Results: • Splitting of thiaarginine and thialysine substrates (final concentration 174 μM) by TAFIa (final concentration 17 μg/ml) • in brackets the value for carboxypeptidase B • Substances of comparison A and B from Bull. Korean. Chem. Soc. 1998, 19(2), 189-193
(§2) ΔE=Extinction variation at 405 nm

The target in the next experiment is T2, TAFIa (Homo sapiens, UniProt Q96IY4).
T2 construct: purchased Enzyme Research Laboratory
T2 sequence (Q96IY4 115-423): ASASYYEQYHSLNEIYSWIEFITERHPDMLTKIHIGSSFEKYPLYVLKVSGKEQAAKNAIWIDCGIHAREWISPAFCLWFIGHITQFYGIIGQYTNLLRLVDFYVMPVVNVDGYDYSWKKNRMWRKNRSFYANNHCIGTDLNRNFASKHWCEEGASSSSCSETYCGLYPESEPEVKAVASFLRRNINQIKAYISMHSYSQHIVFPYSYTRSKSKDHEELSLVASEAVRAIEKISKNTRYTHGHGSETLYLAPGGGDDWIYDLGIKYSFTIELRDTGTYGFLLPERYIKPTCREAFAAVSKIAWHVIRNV
In words: Splitting of thiaarginine and thialysine substrates by TAFIa (DTNB chromogenic enzyme assay). The format is biochemical. The note with it: substrate final concentration 174 μM, TAFIa final concentration 17 μg/ml, RT, 10 min.
From the text: In a first step, the substrate is hydrolyzed by TAFIa in such a way that a thioamino acid (thiaarginine or thialysine) is released. These instable intermediates are rapidly decomposed into 2-mercaptoethylguanidine or […], respectively. These mercapto compounds react with Ellman's reagent (5,5′-dithio-bis-(2-nitrobenzoic acid)), thereby releasing the strongly yellow 3-carboxy-4-nitrothiophenol that can be measured using a spectrophotometer at 405-412 nm. The free thiol content measured is directly proportional to the quantity of substrate hydrolyzed by TAFIa and thereby allows a quantitative analysis of the enzyme activity.
Enzyme assay: The enzyme activity is measured at room temperature by using a 10 mM substrate stock solution in DMSO. TAFI of human origin can be obtained in a stock solution of 360 μg/ml from Enzyme Research Laboratory or over blood plasma. Activation of TAFI to TAFIa occurred with thrombin (2.7 U/ml), the activation of which was produced with 30 μg of thrombomodulin. Excessive thrombin activity was eliminated by adding the synthetic inhibitor NAPAP. The measurement was performed on microtiter plates.
The absorption increase at 405-412 nm was recorded for 10 minutes.
in buffer (20 mM HEPES, 5 mM CaCl2, 0.01% Tween 80; pH 7.4) • incubate for 5 min at 25° C.
as §1, §2

In the case of Boc-K(Z)-G(GUS)-OH × TFA [No. 4275], on carboxypeptidase B, the “ΔE/min (extinction variation at 405 nm), value in brackets for carboxypeptidase B” value (shortened to “ΔE/min … for carboxypeptidase B”) is given as “(0.028)”. Besides, at TAFIa, the “ΔE/min (extinction variation at 405 nm), splitting by TAFIa” value (“ΔE/min … by TAFIa” below) was found to be 0.041. On to Boc-F-K(Boc)-G(GUS)-OH × HCl [No. 4298], for which, on carboxypeptidase B, the “ΔE/min … for carboxypeptidase B” value was “(0.034)”. Also, the “ΔE/min … by TAFIa” value at TAFIa was 0.043. On to Boc-K(Tos)-G(GUS)-OH × HCl [No. 4273], for which the “ΔE/min … for carboxypeptidase B” value at carboxypeptidase B is on record as “(0.048)”. For the same compound, the “ΔE/min … by TAFIa” value at TAFIa is 0.014.

Regarding Bz-P-K(Boc)-G(GUS)-OH × TFA [No. 4300], the “ΔE/min … for carboxypeptidase B” value on carboxypeptidase B is reported as “(0.072)”. In addition, the “ΔE/min … by TAFIa” value at TAFIa worked out at 0.012. Turning to Bz-V-G(GUS)-OH × TFA [No. 4334], at TAFIa, the “ΔE/min … by TAFIa” value amounted to 0.034.

For `NCCCSC(NC(=O)[C@H](CCCCNC(=O)OCc1ccccc1)NC(=O)c1ccccc1)C(=O)O.O=C(O)C(F)(F)F` (stereo partly drawn) [No. 4339, benzoyl-(L)-lysyl-(F-benzyloxycarbonyl)-α-(D,L)-(3-aminopropylthio)-glycine trifluoracetic acid salt], at TAFIa, the “ΔE/min … by TAFIa” value was found to be 0.055. As to `Cl.NC(N)=NCCSC(NC(=O)[C@H](CCCCNC(=O)OCc1ccccc1)NC(=O)c1ccccc1)C(=O)O` (stereo partly drawn) [No. 4269, benzoyl-(L)-lysyl-(E-benzyloxycarbonyl)-α-(D, L)-(2-guanidinoethylthio)-glycine hydrochloride salt], the “ΔE/min … for carboxypeptidase B” value on carboxypeptidase B is “(0.018)”. Moreover, the “ΔE/min … by TAFIa” value on TAFIa is 0.108. For the compound Z-A-K(Boc)-G(GUS)-OH × HCl [No. 4302], the “ΔE/min … for carboxypeptidase B” value at carboxypeptidase B is on record as “(0.059)”. For the same compound, on TAFIa, the “ΔE/min … by TAFIa” value is recorded as 0.042.

With Boc-K(Z)-G(α-SPrA)-OH × TFA [No. 4341], the “ΔE/min … by TAFIa” value at TAFIa turned out to be 0.054. Regarding Bz-V-G(α-SPrA)-OH × TFA [No. 4336], at TAFIa, the “ΔE/min … by TAFIa” value worked out at 0.053.
